According to patent US10336682B1, “Hydroxytyrosol shikimic acid ester for treating cardiovascular deceases and a method of preparing the same” (SHAANXI UNIVERSITY OF SCIENCE AND TECHNOLOGY, priority 2019, dated 2019):

Legend:
[1] = tested on: blood clot (thrombus); assay: Measurement of thrombus resolution rate: mouse blood clots incubated with test solution; design: species or system Kunming mice; conditions: for Resolution/% (thrombus resolution rate): 2 mL solution on mouse blood clot, 6 hours at 37° C.
Procedure: Measurement of Thrombus Resolution Rate in Mice
Experimental materials: Clean-grade Kunming mice, weighing 20-28 g each, half male and half female; urokinase (Shanghai Maclean Biotechnology Co., Ltd.)
Experimental methods: 40 healthy Kunming mice were randomly divided into 5 groups according to their body weight, 8 in each group, half male and half female. One group of mice was selected as blank control. 1 mL of blood was taken from each mouse of the blank control group. After the blood was solidified, the formed blood clot (thrombus) was rinse with physiological saline for 30 minutes, and dried and weighed. The average weight of blood clot was calculated as W. Other groups of mice were treated with the same method. The blood clots were rinsed, and placed in cryotubes. 2 mL solutions of urokinase (positive control group), a low dose of hydroxytyrosol shikimic acid ester (experiment group 1), a medium dose of hydroxytyrosol shikimic acid ester (experimental group 2), and a high dose of hydroxytyrosol shikimic acid ester (experimental group 3) were added to the blood clots. For the blank control group, an equal volume of physiological saline was added to the blood clot. After incubating for 6 hours in a 37° C. incubator, the clots were taken out and rinsed with physiological saline for 30 min. After drying and weighing, the average weight of the blood clot was recorded as G, and the resolution rate of the blood clot was calculated according to the following formula. Thrombus Resolution Rate (%)=[(W−G)/W]×100%

[2] = tested on: thromboxane B2 (TXB2); assay: Measurement of TXB2 in rat plasma after intragastric administration; type: in vivo, SD rats; conditions: for TXB2 level in rat plasma: after 20 days, male SD rats
Text: (§1) Measurement of thromboxane B2 (TXB2), 6-keto prostaglandin F1a (6-Ke-PGF1a) and prostaglandin E2 (PGE2) in rat plasma by enzyme-linked immunosorbent assay
(§2) Experimental materials: clean grade SD rats, body weight 150-250 g, male; TXB2 radioimmunoassay kit, 6-Ke-PGF1a radioimmunoassay kit, PGE2 radioimmunoassay kit, Shanghai Bairui Biotechnology Co., Ltd.
(§3) Experimental methods: 32 rats were randomly divided into 4 groups, 8 rats in each group. After 2 days of normal feeding, blood was taken from the jugular vein of each rat, and the plasma was separated and frozen at −20° C. On the next day, rats in the experimental groups were intragastrically administered with low doses of hydroxytyrosol shikimic acid ester (experimental group 1), medium dose of hydroxytyrosol shikimic acid ester (experimental group 2) and high-dose hydroxytyrosol shikimic acid ester (experimental group 3) at a dose of 1 mL/100 g. Rats in the control group were intragastrically administered with the same amount of normal saline. After 20 days, blood was taken from the jugular vein of each rat, anticoagulated, and the plasma was separated and frozen at −20° C. The contents of plasma TXB2, 6-Ke-PGF1A and PGE2 in each group of rats were determined according to TXB2, 6-Ke-PGF1a and PGE2 kit methods.

[3] = tested on: prostaglandin E2 (PGE2); assay: Measurement of PGE2 in rat plasma after intragastric administration; type: in vivo, SD rats; conditions: for PGE2 level in rat plasma: after 20 days, male SD rats
Text: as §1, §2, §3

[4] = tested on: 6-keto prostaglandin F1a (6-Ke-PGF1a); assay: Measurement of 6-Ke-PGF1a in rat plasma after intragastric administration; type: in vivo, SD rats; conditions: for 6-Ke-PGF1a level in rat plasma: after 20 days, male SD rats
Text: as §1, §2, §3

[5] = compared with the blank control group, 25-250 mg/Kg · d

Compound | Resolution/% (thrombus resolution rate) ([1]; 2.5 mg/mL (low dose, experimental group 1)) | Resolution/% (thrombus resolution rate) ([1]; 5 mg/mL (medium dose, experimental group 2)) | Resolution/% (thrombus resolution rate) ([1]; 10 mg/mL (high dose, experimental group 3)) | blood clot resolution (thrombolytic) effect, in words ([1]; compared with the blank control group, 2.5-10 mg/mL) | TXB2 level in rat plasma ([2]; 25 mg/Kg · d intragastric) | TXB2 level in rat plasma ([2]; 250 mg/Kg · d intragastric) | content of TXB2 in rat plasma, in words [2, 5] | TXB2 level in rat plasma ([2]; intragastric) | PGE2 level in rat plasma ([3]; 25 mg/Kg · d intragastric) | PGE2 level in rat plasma ([3]; 50 mg/Kg · d intragastric) | PGE2 level in rat plasma ([3]; 250 mg/Kg · d intragastric) | content of PGE2 in rat plasma, in words [3, 5] | 6-Ke-PGF1a level in rat plasma ([4]; 25 mg/Kg · d intragastric) | 6-Ke-PGF1a level in rat plasma ([4]; 50 mg/Kg · d intragastric) | 6-Ke-PGF1a level in rat plasma ([4]; 250 mg/Kg · d intragastric) | content of 6-Ke-PGF1a in rat plasma, in words ([4]; compared with the blank control group, 25-250 mg/Kg · d, no obvious dose-dependent relationship) | Resolution/% (thrombus resolution rate) ([1]; 0.5 U/mL)
O=C(OCCc1ccc(O)c(O)c1)C1=C[C@@H](O)[C@@H](O)[C@H](O)C1 [hydroxytyrosol shikimic acid ester] | 6.33 ± 0.19 % | 7.04 ± 0.41 % | 8.93 ± 0.45 % | significant thrombolytic effect | 4.93 ± 0.12 pg/mL | 3.12 ± 0.14 pg/mL | reduced in a dose-dependent manner | 4.38 ± 0.22 pg/mL | 26.18 ± 0.21 pg/mL | 24.22 ± 0.14 pg/mL | 20.87 ± 0.19 pg/mL | reduced in a dose-dependent manner | 76.46 ± 0.17 pg/mL | 85.40 ± 0.32 pg/mL | 81.36 ± 0.28 pg/mL | increased | 
urokinase [reference compound] |  |  |  |  |  |  |  |  |  |  |  |  |  |  |  |  | 12.38 ± 0.27 %
